In article PMC7048302, “Deep Learning-driven research for drug discovery: Tackling Malaria” (PLoS Computational Biology, 2020):
“Also recorded” adds a separate entry of the source. Read-outs that look alike come from different tables or passages of the source.

Experiments:
[1] = tested on: P. falciparum 3D7 strain (chloroquine sensitive); conditions: S3 File, continuous QSAR dataset; ref ChEMBL CHEMBL2366922 [25]; cited from earlier work
[2] = tested on: mouse embryonic fibroblasts (NIH/3T3 cell line); conditions: S4 File, continuous QSAR dataset; ref ChEMBL CHEMBL614822 [25]; cited from earlier work
P. falciparum W2 strain = assay: Antiplasmodial assay (SYBR Green), multi-drug-resistant strain; type: cell-based, Plasmodium falciparum; conditions: for EC50: Plasmodium falciparum, read-out: EC50 (PfW2); for SI^b: Selectivity index calculated by COS7 CC50/W2 EC50
Protocol: (§1) The 3D7 and W2 strains were cultured in RPMI 1640 medium supplemented with 0.05 mg/mL gentamycin, 38.4 mM HEPES, 0.2% sodium bicarbonate, and 10% O^+ human serum, as previously described in standardized protocol. Then, erythrocytes were added to the culture to obtain a 5% of hematocrit, and incubated at 37°C under 5% CO2 atmosphere, with daily exchange of medium. The parasitemia was monitored daily in smears, stained with Giemsa. Synchronic cultures in ring stage were obtained by two consecutive treatments, at 48h intervals with a 5% solution of D-sorbitol.
(§2) Parasites synchronized at the ring stage, with 0.5% parasitemia and 2% hematocrit, were distributed in the wells of a 96-well plate. The compounds were tested in triplicates using 12-point dilution series (0.019 μM– 40 μM) over 72h. Chloroquine and pyrimethamine were used as positive controls. The in vitro susceptibility of parasite to tested drugs was measured by SYBR Green according to Hartwig and colleagues. Briefly, 100 μL of lysis buffer (20 mM Tris, 5 mM EDTA, 0,008% wt/vol saponin, 0,08% vol/vol Triton X-100 and 0.4 μL/mL of SYBR Green) were added in each well of a new black 96-well plate and 100 μL of parasite culture incubated with drugs were transferred. After homogenization, the plates were incubated for 1h in the dark. Fluorescence was measured at 490 nm excitation and 540 nm emission (CLARIOstar, Labtech BMG).
(§3) The EC50 and CC50 values were calculated by plotting the Log doses vs. inhibition (expressed as a percentage relative to the control) in GraphPad Prism v.6 (GraphPad Software, La Jolla California USA, www.graphpad.com).

P. falciparum 3D7 strain = assay: Antiplasmodial assay (SYBR Green), sensitive strain; type: cell-based, Plasmodium falciparum; conditions: for EC50: Plasmodium falciparum; for antiplasmodial activity (concentration range in words): asexual blood stages, 3D7 and W2 strains; for SI^a: Selectivity index calculated by COS7 CC50/3D7 EC50
Protocol: as §1, §2, §3

[3] = Cytotoxicity assay (MTT reduction); type: cell-based, monkey; conditions: monkey, COS-7 cells (fibroblast-like monkey kidney cell line); 72 hours, mean ± SD of three independent assays
Protocol: (§4) Cytotoxicity assays used fibroblast-like cell lines derived from monkey kidney tissue (COS7 cells), grown in DMEM medium supplemented with 10% fetal bovine serum and 0.05 mg/mL gentamicin in atmosphere containing 5% CO2 at 37°C. […] After an incubation period (72 hours), cell viability analysis was performed via the MMT reduction method (3- [4,5- dimethyl-thiazol-2-yl] -2,5-diphenyltetrazolium […]).
as §3

COS-7 cells = assay: Cytotoxicity assay (MTT reduction); type: cell-based, monkey; conditions: in words
Protocol: as §4, §3

[4] = W2, asexual blood stage, 72h, mean ± SD of three independent assays
[5] = 3D7, asexual blood stage, 72h, mean ± SD of three independent assays, read-out: EC50 (Pf3D7)
[6] = 3D7, asexual blood stages of sensitive and multi-drug-resistant strains, read-out: EC50

Compound	pEC50 [1]	EC50 (P. falciparum W2 strain; [4])	CC50 at 72 h [3]	EC50 (P. falciparum 3D7 strain; [5])	SI^b (P. falciparum W2 strain)	further results
Cc1ccc(-c2ccc(-c3ccc(C(=N)N)cc3)o2)cc1	10.24	–	–	–	–	–
CC1CCC2C(C)C(O)OC3OC4(C)CCC1C32OO4 (centres unmarked)	10.00	–	–	–	–	–
COc1ccc(-c2ccc(-c3ccc(C(=N)N)cc3)o2)cc1	9.86	–	–	–	–	–
Cn1cncc1C(O)C1=Cc2cccnc2C(N2CCN(C(=O)NC(C)(C)C)CC2)c2ccc(Cl)cc21 (centres unmarked)	–	–	–	–	–	pCC50 [2]: 9.30
Cn1cncc1C(OCc1ccc(C#N)cc1C#Cc1ccccc1)c1ccc(C#N)cc1 (centres unmarked)	–	–	–	–	–	pCC50 [2]: 10.00
N=C(N)c1ccc(-c2ccc(-c3ccc(F)cc3)o2)cc1	11.02	–	–	–	–	–
CCN(CC)CCCC(C)Nc1ccnc2cc(Cl)ccc12 (centres unmarked) [Chloroquine, chloroquine, reference compound]	–	–	–	–	–	EC50 (P. falciparum W2 strain; W2, 72 h): 173 ± 20 nM; EC50 (P. falciparum 3D7 strain; 3D7, 72 h, read-out: EC50 (Pf3D7)): 11 ± 1 nM
CC1(C)NC(C2=NOC(C)(C)N2)=NO1 [LabMol-148]	–	> 40000 nM	> 200000 nM	> 40000 nM	–	–
Oc1ccccc1C1N=C(c2ccccc2)N=C(c2ccccc2)N1 (centres unmarked) [LabMol-149, 2-(4,6-diphenyl-1,2-dihydro-1,3,5-triazin-2-yl)phenol]	–	509 ± 177 nM	> 100000 nM	1450 ± 524 nM	>196	cytotoxicity in mammalian cells (COS-7 cells): low cytotoxicity; EC50 (P. falciparum 3D7 strain; [6]): < 500 nM; antiplasmodial activity (concentration range in words) (P. falciparum 3D7 strain): submicromolar and low nanomolar range; also recorded: activity at submicromolar concentrations
Nc1cc(N)nc(N2CCOCC2)n1 [LabMol-150]	–	> 40000 nM	> 200000 nM	> 40000 nM	–	–
CC(=O)N(C1=C(N2CCOCC2)C(=O)c2ccccc2C1=O)c1ccc(C(=O)O)cc1 [LabMol-151, 4-{N-[3-(morpholin-4-yl)-1,4-dioxo-1,4-dihydronaphthalen-2-yl]acetamido}benzoic acid]	–	1620 ± 321 nM	141000 ± 11200 nM	1910 ± 292 nM	87.1	cytotoxicity in mammalian cells (COS-7 cells): low cytotoxicity; SI^a (P. falciparum 3D7 strain): 73.7; antiplasmodial activity (concentration range in words) (P. falciparum 3D7 strain): submicromolar and low nanomolar range; also recorded: activity at submicromolar concentrations
Fc1cccc(Nc2nc(NCC3CCCO3)c3ccccc3n2)c1 (centres unmarked) [LabMol-152, N2-(3-fluorophenyl)-N4-[(oxolan-2-yl)methyl]quinazoline-2,4-diamine]	–	78 ± 14 nM	16700 ± 10300 nM	49 ± 29 nM	214.1	cytotoxicity in mammalian cells (COS-7 cells): low cytotoxicity; EC50 (P. falciparum 3D7 strain; [6]): < 500 nM; SI^a (P. falciparum 3D7 strain): 340.8; antiplasmodial activity (concentration range in words) (P. falciparum 3D7 strain): submicromolar and low nanomolar range
CCc1nc(N)nc(N)c1-c1ccc(Cl)cc1 [Pyrimethamine, pyrimethamine, reference compound]	–	18200 ± 4540 nM	> 100000 nM	37 ± 7 nM	5.5	SI^a (P. falciparum 3D7 strain): 2,702
